According to the supplement of paper PMC11061612:

Tests used:
Assay in all cases: combination Emax (second highest fraction inhibited in the dose matrix, 72 h); higher = more inhibition; extreme values may be limits of the assay
[1] = system: NUGC-3 (Gastric Carcinoma)
In short: (§1)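 Bliss excess equals the observed combination effect minus the expected value EA + EB − EA·EB, where EA and EB are the effects of each agent alone. Combination Emax is the second-highest inhibition within the matrix. Inhibition was scaled from CellTiter-Glo 2.0 luminescence, with 0 set by vehicle wells and 1 by blank wells, after 72 hours of two-drug dosing of cells plated in 1536-well plates.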

[2] = system: NCI-H1915 (Non-Small Cell Lung Carcinoma)
In short: as §1

YH-13 (Glioblastoma) = system: YH-13 (Glioblastoma)
In short: as §1

[3] = system: Caov-4 (Ovarian Carcinoma)
In short: as §1

PWR-1E (Non-Cancerous) = system: PWR-1E (Non-Cancerous)
In short: as §1

[4] = system: PANC-04-03 (Pancreatic Carcinoma)
In short: as §1

[5] = system: NEC8 (Other Solid Carcinomas)
In short: as §1

[6] = system: RF-48 (B-Cell Non-Hodgkin's Lymphoma)
In short: as §1

[7] = system: HGC-27 (Gastric Carcinoma)
In short: as §1

[8] = system: MIA-PaCa-2 (Pancreatic Carcinoma)
In short: as §1

TGW (Neuroblastoma) = system: TGW (Neuroblastoma)
In short: as §1

EW-24 (Ewing's Sarcoma) = system: EW-24 (Ewing's Sarcoma)
In short: as §1

[9] = system: VA-ES-BJ (Other Solid Carcinomas)
In short: as §1

[10] = system: HSC-4 (Oral Cavity Carcinoma)
In short: as §1

[11] = system: KARPAS-299 (T-Cell Non-Hodgkin's Lymphoma)
In short: as §1

[12] = system: Ca9-22 (Head and Neck Carcinoma)
In short: as §1

[13] = system: LU-65 (Non-Small Cell Lung Carcinoma)
In short: as §1

[14] = system: KYSE-450 (Esophageal Squamous Cell Carcinoma)
In short: as §1

ACHN (Kidney Carcinoma) = system: ACHN (Kidney Carcinoma)
In short: as §1

[15] = system: HOP-62 (Lung Adenocarcinoma)
In short: as §1

Compound | combination Emax [1] | combination Emax [2] | combination Emax (YH-13 (Glioblastoma)) | combination Emax [3] | combination Emax (PWR-1E (Non-Cancerous)) | combination Emax [4] | combination Emax [5] | combination Emax [6] | combination Emax [7] | combination Emax [8] | combination Emax (TGW (Neuroblastoma)) | combination Emax (EW-24 (Ewing's Sarcoma)) | combination Emax [9] | combination Emax [10] | combination Emax [11] | combination Emax [12] | combination Emax [13] | combination Emax [14] | combination Emax (ACHN (Kidney Carcinoma)) | combination Emax [15]
CN(C)CCCOc1ccc(-c2ccc3ncc4c(c3c2)n(C2CCOCC2)c(=O)n4C)cn1 [AZD0156] + C=CCn1c(=O)c2cnc(Nc3ccc(N4CCN(C)CC4)cc3)nc2n1-c1cccc(C(C)(C)O)n1 [AZD1775] (first compound max 1 µM, partner max 1 µM) | 0.552 | 0.563 | 0.352 | 0.753 | 0.678 | 0.471 | 0.336 | 0.602 | 0.499 | 0.595 | 0.769 | 0.279 | 0.381 | 0.389 | 0.918 | 0.721 | 0.639 | 0.583 | 0.933 | 0.266
CN(C)CCCOc1ccc(-c2ccc3ncc4c(c3c2)n(C2CCOCC2)c(=O)n4C)cn1 [AZD0156] + CCN(CCO)CCCOc1ccc2c(Nc3cc(CC(=O)Nc4cccc(F)c4)[nH]n3)ncnc2c1 [AZD2811] (first compound max 1 µM, 7x7, partner max 1 µM) | 0.322 | 0.299 | 0.348 | 0.19 | 0.626 | 0.0564 | 0.146 | 0.305 | 0.866 | 0.376 | 0.356 | 0.302 | 0.245 | 0.0498 | 0.243 | 0.127 | 0.281 | 0.193 | 0.135 | 0.0853
CN(C)CCCOc1ccc(-c2ccc3ncc4c(c3c2)n(C2CCOCC2)c(=O)n4C)cn1 [AZD0156] + C[C@@H]1COCCN1C2=NC(=NC(=C2)C3(CC3)[S@](=N)(=O)C)C4=C5C=CNC5=NC=C4 [AZD6738] (first compound max 1 µM, 7x7, partner max 10 µM) | 0.727 | 0.522 | 0.578 | 0.744 | 0.911 | 0.615 | 0.877 | 0.588 | 0.862 | 0.605 | 0.833 | 0.552 | 0.699 | 0.685 | 0.953 | 0.925 | 0.76 | 0.649 | 0.883 | 0.546
CN(C)CCCOc1ccc(-c2ccc3ncc4c(c3c2)n(C2CCOCC2)c(=O)n4C)cn1 [AZD0156] + O=C(c1cc(Cc2n[nH]c(=O)c3ccccc23)ccc1F)N1CCN(C(=O)C2CC2)CC1 [Olaparib] (first compound max 3 µM, partner max 3 µM) | 0.346 | 0.231 | 0.453 | 0.154 | 0.684 | 0.32 | 0.277 | 0.319 | 0.478 | 0.226 | 0.413 | 0.473 | 0.284 | 0.234 | 0.467 | 0.465 | 0.268 | 0.159 | 0.338 | 0.122
C=CCn1c(=O)c2cnc(Nc3ccc(N4CCN(C)CC4)cc3)nc2n1-c1cccc(C(C)(C)O)n1 [AZD1775] + C1CN(CCC1(C(=O)N[C@@H](CCO)C2=CC=C(C=C2)Cl)N)C3=NC=NC4=C3C=CN4 [Capivasertib] (first compound max 3 µM, partner max 3 µM) | 0.715 | 0.657 | 0.519 | 0.754 | 0.988 | 0.571 | 0.985 | 0.86 | 0.886 | 0.585 | 0.889 | 0.503 | 0.645 | 0.629 | 0.947 | 0.921 | 0.815 | 0.843 | 0.825 | 0.428
C=CCn1c(=O)c2cnc(Nc3ccc(N4CCN(C)CC4)cc3)nc2n1-c1cccc(C(C)(C)O)n1 [AZD1775] + C[C@@H]1COCCN1C2=NC(=NC(=C2)C3(CC3)[S@](=N)(=O)C)C4=C5C=CNC5=NC=C4 [AZD6738] (first compound max 1 µM, partner max 10 µM) | 0.834 | 0.658 | 0.69 | 0.902 | 0.913 | 0.63 | 0.932 | 0.669 | 0.966 | 0.956 | 0.97 | 0.652 | 0.822 | 0.662 | 0.965 | 0.957 | 0.884 | 0.946 | 0.964 | 0.668
Cc1c2c(nn1C)CSCc1cc(n(C)n1)CSc1cc(c3ccccc3c1)OCCCc1c(C(=O)O)n(C)c3c-2c(Cl)ccc13 [AZD5991] + C1CN(CCC1(C(=O)N[C@@H](CCO)C2=CC=C(C=C2)Cl)N)C3=NC=NC4=C3C=CN4 [Capivasertib] (first compound max 1 µM, 7x7, partner max 3 µM) | 0.171 | 0.18 | 0.265 | 0.493 | 0.226 | 0.186 | 0.431 | 0.353 | 0.861 | 0.244 | 0.326 | 0.332 | 0.227 | 0.42 | 1 | 0.242 | 0.543 | 0.376 |  | 0.257
Cc1c2c(nn1C)CSCc1cc(n(C)n1)CSc1cc(c3ccccc3c1)OCCCc1c(C(=O)O)n(C)c3c-2c(Cl)ccc13 [AZD5991] + CN(C)CCCOc1ccc(-c2ccc3ncc4c(c3c2)n(C2CCOCC2)c(=O)n4C)cn1 [AZD0156] (first compound max 1 µM, 7x7, partner max 1 µM) | 0.369 | 0.439 | 0.254 | 0.511 | 0.29 | 0.24 | 0.291 |  | 0.51 | 0.289 | 0.293 | 0.291 | 0.243 | 0.197 | 0.978 | 0.256 | 0.366 | 0.251 | 0.179 | 0.473
CS(=O)(=O)CCNCc1ccc(-c2ccc3ncnc(Nc4ccc(OCc5cccc(F)c5)c(Cl)c4)c3c2)o1 [Lapatinib] + NC1(c2ccc(-c3nc4ccn5c(=O)[nH]nc5c4cc3-c3ccccc3)cc2)CCC1 [MK-2206] (first compound max 10 µM, 7x7, partner max 10 µM) | 0.91 |  | 0.909 | 0.878 | 0.836 | 0.505 |  | 0.658 | 0.988 | 0.929 | 0.422 | 0.925 |  | 0.42 | 0.926 | 0.971 | 0.649 | 0.602 | 0.676 | 
O=C(c1cc(Cc2n[nH]c(=O)c3ccccc23)ccc1F)N1CCN(C(=O)C2CC2)CC1 [Olaparib] + COc1nnc2ccc(N3CCC(c4ccc(OCCN5CCN(C)C(=O)[C@H]5C)cc4)CC3)nn12 [AZD5153] (first compound max 10 µM, 7x7, partner max 1 µM) |  |  | 0.556 | 0.456 |  | 0.52 |  | 0.354 |  | 0.852 | 0.476 | 0.639 |  |  | 0.774 | 0.625 | 0.49 | 0.235 | 0.539 | 
O=C(c1cc(Cc2n[nH]c(=O)c3ccccc23)ccc1F)N1CCN(C(=O)C2CC2)CC1 [Olaparib] + Cc1c2c(nn1C)CSCc1cc(n(C)n1)CSc1cc(c3ccccc3c1)OCCCc1c(C(=O)O)n(C)c3c-2c(Cl)ccc13 [AZD5991] (first compound max 10 µM, 7x7, partner max 1 µM) |  |  | 0.187 | 0.482 |  | 0.0799 |  | 0.365 |  | 0.161 | 0.192 | 0.193 |  |  | 0.931 | 0.212 | 0.2 | 0.0895 | 0.177 | 
CCc1c2c(nc3ccc(O)cc13)-c1cc3c(c(=O)n1C2)COC(=O)[C@]3(O)CC [SN-38] + O=C(c1cc(Cc2n[nH]c(=O)c3ccccc23)ccc1F)N1CCN(C(=O)C2CC2)CC1 [Olaparib] (first compound max 0.3 µM, 7x7, partner max 10 µM) |  |  | 0.58 | 0.937 |  | 0.465 | 1 | 0.775 | 0.852 | 0.935 | 0.668 | 0.821 | 0.818 |  | 0.896 | 0.868 | 0.87 | 0.671 | 0.912 | 0.672
Cc1nc(-c2cn3c(n2)-c2ccc(-c4cnn(C(C)(C)C(N)=O)c4)cc2OCC3)n(C(C)C)n1 [Taselisib] + O=C(Nc1ccc2[nH]nc(-c3ccncc3)c2c1)[C@@H]1CCN(CC(=O)N2CCN(c3ccc(-c4ncccn4)cc3)CC2)C1 [SCH772984] (first compound max 10 µM, 7x7, partner max 5 µM) |  |  | 0.932 | 0.763 |  | 0.905 |  | 0.36 |  | 0.797 | 0.516 | 0.602 |  |  | 0.413 | 0.938 | 0.991 | 0.725 | 0.692 | 
CC1(C)CCC(CN2CCN(c3ccc(C(=O)NS(=O)(=O)c4ccc(NCC5CCOCC5)c([N+](=O)[O-])c4)c(Oc4cnc5[nH]ccc5c4)c3)CC2)=C(c2ccc(Cl)cc2)C1 [Venetoclax] + CS(=O)(=O)CCNCc1ccc(-c2ccc3ncnc(Nc4ccc(OCc5cccc(F)c5)c(Cl)c4)c3c2)o1 [Lapatinib] (first compound max 1 µM, 7x7, partner max 10 µM) |  |  | 0.0901 | 0.304 |  | 0.291 |  | 0.34 |  | 0.272 | 0.459 | 0.245 |  |  | 0.337 | 0.777 | 0.207 | 0.34 | 0.52 | 
